From patent publication US20170372030A9, “METHOD AND APPARATUS FOR COMPUTER MODELING OF THE INTERACTION BETWEEN AND AMONG CORTICAL AND SUBCORTICAL AREAS IN THE HUMAN BRAIN FOR THE PURPOSE OF PREDICTING THE EFFECT OF DRUGS IN PSYCHIATRIC AND COGNITIVE DISEASES” (priority 2005, published 2017)
Read-outs that look alike come from different tables or passages of the source.

What was measured:
[1] = system: fast Na+ channel, persistent Na+ channel, L-type Ca++ channel; conditions: saturating dose of 5HT (1 μM); cited from earlier work
5HT-Transporter = 5HT-Transporter (Homo sapiens, UniProt P31645); conditions: read-out: Km of 5HT-Transporter; cited from earlier work
[2] = target: receptors of the 5HT1 class; conditions: read-out: high-affinity binding for serotonin; cited from earlier work
5HT1b/d autoreceptor = conditions: cited from earlier work; for decrease of free 5HT: maximal stimulation of 5HT1b/d autoreceptor
D2-R [3] = target: T1, D2-R (Homo sapiens, UniProt P14416); experiment: Drug and tracer binding affinity and on/off rates at the D2-R (Table 1); conditions: calculated as kon × Kd
D2-R [4] = target: T1, D2-R; conditions: cited from earlier work
5HT2C receptor = target: T2, 5HT2C receptor (Rattus norvegicus, UniProt P08909); conditions: microdialysis, maximal effect; cited from earlier work
T2 construct: from tissue; host or cells: brain in vivo (microdialysis), value quoted from the literature
T2 sequence (P08909 33-460): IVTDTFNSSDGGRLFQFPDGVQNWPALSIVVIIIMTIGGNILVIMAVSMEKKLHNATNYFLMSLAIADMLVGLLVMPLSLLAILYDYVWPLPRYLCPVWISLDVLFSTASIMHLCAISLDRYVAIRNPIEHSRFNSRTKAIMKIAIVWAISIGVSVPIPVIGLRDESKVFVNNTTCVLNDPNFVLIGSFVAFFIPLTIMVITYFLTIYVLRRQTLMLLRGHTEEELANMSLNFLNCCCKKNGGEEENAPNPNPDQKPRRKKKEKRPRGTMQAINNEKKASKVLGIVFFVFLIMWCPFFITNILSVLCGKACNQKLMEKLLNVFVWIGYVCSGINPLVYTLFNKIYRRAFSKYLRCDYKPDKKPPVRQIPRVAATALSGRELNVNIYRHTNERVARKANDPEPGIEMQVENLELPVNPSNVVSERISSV

alpha 1-adrenoreceptor [5] = conditions: nonspiking regions, human cortical membranes; read-out: affinity; cited from earlier work
alpha 1-adrenoreceptor [6] = conditions: normal rat brain in vivo, cited from earlier work
α2 adrenergic receptors = conditions: full stimulation of α2 receptors; cited from earlier work
α2-R = conditions: read-out: Ki for NE at the α2-R; cited from earlier work
[7] = system: Norepinephrine Transporter (NET); conditions: rat jejunum, cited from earlier work
NET = target: T3, NET (Rattus norvegicus, UniProt Q63380); conditions: blocking the NET; cited from earlier work
T3 construct: from tissue
T3 sequence (Q63380 1-617): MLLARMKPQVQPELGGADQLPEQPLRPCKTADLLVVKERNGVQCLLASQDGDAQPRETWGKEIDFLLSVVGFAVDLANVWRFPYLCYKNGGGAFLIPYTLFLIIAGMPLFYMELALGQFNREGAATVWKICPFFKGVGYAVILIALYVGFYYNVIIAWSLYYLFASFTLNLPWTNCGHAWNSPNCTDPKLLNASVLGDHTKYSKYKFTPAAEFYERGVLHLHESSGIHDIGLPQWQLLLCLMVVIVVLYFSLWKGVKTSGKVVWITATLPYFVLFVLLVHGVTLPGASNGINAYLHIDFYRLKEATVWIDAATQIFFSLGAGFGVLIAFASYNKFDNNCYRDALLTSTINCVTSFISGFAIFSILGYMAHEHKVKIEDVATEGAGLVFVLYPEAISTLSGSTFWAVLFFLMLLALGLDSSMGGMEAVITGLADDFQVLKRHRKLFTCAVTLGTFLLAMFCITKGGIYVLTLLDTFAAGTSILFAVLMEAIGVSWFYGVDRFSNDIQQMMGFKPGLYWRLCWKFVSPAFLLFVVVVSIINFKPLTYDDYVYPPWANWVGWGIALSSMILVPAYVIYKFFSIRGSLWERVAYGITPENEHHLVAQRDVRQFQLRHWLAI

T1 sequence (P14416 whole entry): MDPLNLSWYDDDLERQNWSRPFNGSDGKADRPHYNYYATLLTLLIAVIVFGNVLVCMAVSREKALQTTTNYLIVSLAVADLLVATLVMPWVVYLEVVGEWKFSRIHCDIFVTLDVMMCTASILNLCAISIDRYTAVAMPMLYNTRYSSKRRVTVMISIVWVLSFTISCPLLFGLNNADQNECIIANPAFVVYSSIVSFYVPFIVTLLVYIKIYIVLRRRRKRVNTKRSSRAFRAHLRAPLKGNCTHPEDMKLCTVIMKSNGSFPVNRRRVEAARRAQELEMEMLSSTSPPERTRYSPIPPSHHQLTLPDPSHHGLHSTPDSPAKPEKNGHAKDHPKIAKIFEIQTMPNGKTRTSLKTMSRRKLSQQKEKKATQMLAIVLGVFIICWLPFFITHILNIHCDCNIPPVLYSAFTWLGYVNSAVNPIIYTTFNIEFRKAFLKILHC
5HT-Transporter, sequence (P31645 whole entry): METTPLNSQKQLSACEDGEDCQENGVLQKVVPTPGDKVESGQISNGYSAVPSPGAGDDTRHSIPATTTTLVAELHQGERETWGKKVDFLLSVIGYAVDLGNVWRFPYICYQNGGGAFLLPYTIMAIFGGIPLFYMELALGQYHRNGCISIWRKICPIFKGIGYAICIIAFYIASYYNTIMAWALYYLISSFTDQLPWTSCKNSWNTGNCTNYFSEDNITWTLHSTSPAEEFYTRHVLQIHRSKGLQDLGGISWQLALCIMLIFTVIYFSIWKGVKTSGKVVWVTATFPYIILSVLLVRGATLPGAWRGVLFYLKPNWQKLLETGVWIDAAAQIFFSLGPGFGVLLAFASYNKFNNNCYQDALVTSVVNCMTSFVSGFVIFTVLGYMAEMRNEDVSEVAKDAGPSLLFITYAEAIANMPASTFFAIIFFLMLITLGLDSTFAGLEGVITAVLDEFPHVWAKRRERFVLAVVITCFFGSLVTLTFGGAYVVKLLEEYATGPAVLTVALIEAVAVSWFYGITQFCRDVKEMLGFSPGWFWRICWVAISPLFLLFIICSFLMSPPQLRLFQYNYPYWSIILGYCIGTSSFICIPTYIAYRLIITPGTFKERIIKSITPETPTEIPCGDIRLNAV

**Q.** For `NCCc1c[nH]c2ccc(O)cc12` [5HT, serotonin], which “decrease of maximum conductance of fast Na+, persistent Na+ and L-type Ca++ channel” value [1] is on record?
**A.** 20%

**Q.** And the Km (5HT-Transporter)?
**A.** 0.34 µM

**Q.** And the Kd [2]?
**A.** ~15 nM

**Q.** For `O=c1ccc2[nH]cc(C3=CCNCC3)c2[nH]1` [CP93,129], which “decrease of free 5HT” value (5HT1b/d autoreceptor) is on record?
**A.** 45%

**Q.** Which “decrease of free 5HT” value (5HT1b/d autoreceptor) does the source give for `CN1CCC[C@@H]1Cc1c[nH]c2ccc(Nc3ncccc3[N+](=O)[O-])cc12` [CP135,807] here?
**A.** 45%

**Q.** With `CCN1CCC[C@H]1CNC(=O)c1c(OC)ccc(I)c1O` [IBZM] as the compound, how does the “Koff” value (D2-R [3]) read?
**A.** 0.0176 s⁻¹

**Q.** And the Kd (D2-R [4]; tracer, read-out: affinity of tracer for the D2-R)?
**A.** 160 nM

**Q.** For `Cc1nc2n(c(=O)c1CCN1CCC(c3noc4cc(F)ccc34)CC1)CCCC2O` (stereo not drawn) [Paliperidone], which Kd (D2-R [4]; at the D2-R, read-out: Kd) is on record?
**A.** 4.1 nM

**Q.** For `C[C@H](N)Cn1ccc2cc(F)c(Cl)cc21` [Ro-60-0175], which “maximal reduction of free DA” value (5HT2C receptor) is on record?
**A.** 30%

**Q.** For `COc1cc2nc(N3CCN(C(=O)c4ccco4)CC3)nc(N)c2cc1OC` [[^3H]prazosin, prazosin], which Kd (alpha 1-adrenoreceptor [5]) is on record?
**A.** 0.17 nM

**Q.** With `O=C1c2ccccc2CCC1CNCCc1ccc(O)c(I)c1` (stereo not drawn) [[^125I]HEAT, [^125I]iodo-2-[beta-(4-hydroxyphenyl)ethylaminomethyl]] as the compound, how does the Kd (alpha 1-adrenoreceptor [6]; read-out: Kd (half-saturation constant), high-affinity site) read?
**A.** 3.6 nM

**Q.** And the Kd (alpha 1-adrenoreceptor [6]; read-out: Kd, low-affinity site)?
**A.** 668 nM

**Q.** For `Clc1cccc(Cl)c1N=C1NCCN1` [clonidine], which “reduction of 5HT firing (and subsequent PFC 5HT release)” value (α2 adrenergic receptors) is on record?
**A.** 45%

**Q.** Which “increase of free 5HT” value (5HT1b/d autoreceptor; maximal block of 5HT1b/d autoreceptor) does the source give for `CC(C)NCC(O)COc1ccccc1-n1cccc1` (stereo not drawn) [isamoltane] here?
**A.** 50%

**Q.** Which Ki (α2-R) does the source give for `NC[C@H](O)c1ccc(O)c(O)c1` [norepinephrine] here?
**A.** 996 nM

**Q.** And the Km ([7]; read-out: Km, low-affinity component (uptake 2))?
**A.** 111 µM

**Q.** What about the Km ([7]; read-out: Michaelis constant (Km), high-affinity component (uptake 1)) of the same compound?
**A.** 1.72 µM

**Q.** With `COc1ccc(C(CN(C)C)C2(O)CCCCC2)cc1` (stereo not drawn) [venlafaxine] as the compound, how does the “NE increase in cortex” value (NET) read?
**A.** 498%
